Numbering of substitutions follows the chain as printed. Names and notes keep the numbering of the source.
Assays:
[1] = biological target: T1, MHETase (Pseudideonella sakaiensis, UniProt A0A0K8P8E7); test: X-ray crystallography, […] Å; type: binding; design: gene ISF6_0224; pET21b(+)-based expression in E. coli, purified; residue borders and tags only in SI; catalytic triad Ser225, Asp492, His528; conditions: active site; fully occupied in 6QZ3, partially occupied in 6QZ1
T1 sequence (A0A0K8P8E7 18-603 limits assumed): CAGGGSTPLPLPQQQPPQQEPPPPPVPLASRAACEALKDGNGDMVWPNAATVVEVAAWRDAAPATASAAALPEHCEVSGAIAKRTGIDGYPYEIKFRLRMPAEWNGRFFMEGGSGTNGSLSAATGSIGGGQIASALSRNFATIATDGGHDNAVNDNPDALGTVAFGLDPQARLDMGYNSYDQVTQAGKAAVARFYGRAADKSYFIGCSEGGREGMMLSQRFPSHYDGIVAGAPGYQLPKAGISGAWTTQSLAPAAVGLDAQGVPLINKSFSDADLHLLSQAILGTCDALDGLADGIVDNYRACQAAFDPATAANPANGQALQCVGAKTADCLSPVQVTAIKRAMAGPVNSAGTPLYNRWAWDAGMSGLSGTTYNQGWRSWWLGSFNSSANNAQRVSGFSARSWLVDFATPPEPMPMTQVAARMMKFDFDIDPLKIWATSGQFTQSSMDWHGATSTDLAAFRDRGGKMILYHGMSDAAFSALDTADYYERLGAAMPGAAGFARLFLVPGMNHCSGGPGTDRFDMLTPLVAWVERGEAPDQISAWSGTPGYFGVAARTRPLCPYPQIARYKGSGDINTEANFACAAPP

[2] = biological target: T1, MHETase; test: HPLC hydrolysis assay, initial velocities, substrate inhibition model fit; type: biochemical; design: gene ISF6_0224; pET21b(+)-based expression in E. coli, purified; residue borders and tags only in SI; catalytic triad Ser225, Asp492, His528; conditions: substrate inhibition constant
Excerpt: HPLC hydrolysis assay, initial velocities, substrate inhibition model fit on MHETase | MHETase is also the most susceptible to substrate inhibition with a Kk value of […]

[3] = test system: T2, C. thiooxydans homolog; test: as above; type: biochemical, Comamonas thiooxydans; conditions: substrate inhibition constant
T2 construct: gene MHETase homolog; Gly179 at the position of MHETase Ser131
Excerpt: HPLC hydrolysis assay, initial velocities, substrate inhibition model fit on C. thiooxydans homolog | MHETase and both homologs also display this behavior

[4] = test system: T3, C. thiooxydans homolog; conditions: substrate inhibition model
T3 construct: gene MHETase homolog

[5] = substrate: O=C(O)c1ccc(C(=O)OCCO)cc1; test: HPLC hydrolysis assay, initial velocities, simple Michaelis-Menten fit; type: biochemical, Pseudideonella sakaiensis; conditions: simple Michaelis-Menten model
Excerpt: HPLC hydrolysis assay, initial velocities, simple Michaelis-Menten fit on MHETase | The S131G mutant has a Km value approximately eightfold higher than that of wild-type MHETase

For `O=C(O)c1ccccc1` [benzoate], the “X-ray crystallography, 1.6 Å” value [1] was “one structure with a fully occupied benzoic acid ligand (6QZ3)”.

`O=C(O)c1ccc(C(=O)OCCO)cc1` [MHET] gave a Kk [2] of 307.30 ± 20.65 µM, a Kk [3] of 78.80 ± 3.04 µM and a Km [4] of 175 ± 4.75 µM.

B1: MHETase (Pseudideonella sakaiensis; S131G) (protein)
chain: T1 sequence (A0A0K8P8E7 18-603 limits assumed) with S114G
notes: pET21b(+)-based expression in E. coli, purified; residue borders and tags only in SI; catalytic triad Ser225, Asp492, His528
Work on B1 yielded a Km [5] of 184.10 ± 3.50 µM.
